Results taken from PubChem BioAssay (NCI).
“And” between values parts separate entries of the source, which are not always exact repeats. Equal entries are not always repeated.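 Briefly, cells in 96-well plates were exposed to five compound concentrations for 48 h, and endpoints were estimated by linear interpolation. GI50 = concentration required for 50% inhibition of growth. TGI: concentration producing complete growth inhibition.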

Legend:
Experiment in all cases: NCI tumour cell line growth inhibition, 48 h
SK-MEL-28 melanoma = test system: SK-MEL-28 melanoma
XF 498 CNS = test system: XF 498 CNS
HOP-18 NSCLC = test system: HOP-18 NSCLC
LXFL 529 NSCLC = test system: LXFL 529 NSCLC
DLD-1 colon = test system: DLD-1 colon
KM20L2 colon = test system: KM20L2 colon
DMS 273 small cell lung = test system: DMS 273 small cell lung
DU-145 prostate = test system: DU-145 prostate
MCF7 breast = test system: MCF7 breast
MDA-MB-231 breast = test system: MDA-MB-231 breast

| SMILES | TGI (SK-MEL-28 melanoma) | TGI (XF 498 CNS) | TGI (HOP-18 NSCLC) | TGI (LXFL 529 NSCLC) [µM] | TGI (DLD-1 colon) | TGI (KM20L2 colon) | TGI (DMS 273 small cell lung) | GI50 (SK-MEL-28 melanoma) | GI50 (XF 498 CNS) | GI50 (HOP-18 NSCLC) | GI50 (LXFL 529 NSCLC) [µM] | GI50 (DLD-1 colon) | GI50 (DMS 273 small cell lung) | TGI (DU-145 prostate) [µM] | TGI (MCF7 breast) | TGI (MDA-MB-231 breast) | GI50 (MCF7 breast) [µM] | GI50 (KM20L2 colon) |
| --- | --- | --- | --- | --- | --- | --- | --- | --- | --- | --- | --- | --- | --- | --- | --- | --- | --- | --- |
| CC(C)(C)NNC(=O)/C(=C/c1ccc(Oc2ccc(Cl)c(Cl)c2)cc1)NC(=O)c1ccccc1 | > 100 µM | > 100 µM | > 100 µM | > 100 | > 100 µM | > 100 µM | 58.3 µM | – | – | – | – | – | – | – | – | – | – | – |
| CC(=O)Nc1ccc(/C=C(\NC(=O)c2ccccc2)c2nc3ccc4c(c3[nH]2)C(=O)c2ccccc2C4=O)cc1 | > 100 µM | > 100 µM | > 100 µM | > 100 | > 100 µM | > 100 µM | > 100 µM | – | – | – | – | – | – | – | – | – | – | – |
| COc1ccc(OCC(=O)O)c2c1CCC(C(C)C)C2=O (stereo not drawn) | > 100 µM | – | > 100 µM | > 100 | > 100 µM | > 100 µM | > 100 µM | – | – | – | – | – | – | – | – | – | – | – |
| C/C(CN1C(=O)c2ccccc2C1=O)=N\NS(=O)(=O)c1cccc([N+](=O)[O-])c1 | > 100 µM | > 100 µM | > 100 µM | > 100 | > 100 µM | > 100 µM | > 100 µM | – | – | – | – | – | – | – | – | – | – | – |
| Cc1cc2c(cc1C)NC(=O)C(NC(=O)/C=C/c1ccccc1)C=N2 (stereo not drawn) | > 100 µM | 99.6 µM | > 100 µM | > 100 | > 100 µM | > 100 µM | > 100 µM | – | – | – | – | – | – | – | – | – | – | – |
| Cc1ccc(NC(=O)c2[nH]c(=S)nc(N)c2-c2ccccc2C)cc1C | > 100 µM | > 100 µM | > 100 µM | > 100 | > 100 µM | > 100 µM | > 100 µM | – | – | – | – | – | – | – | – | – | – | – |
| O=C(O)c1ccc(S(=O)(=O)c2ccccc2)c([N+](=O)[O-])c1 | > 100 µM | – | > 100 µM | > 100 | > 100 µM | > 100 µM | > 100 µM | – | – | – | – | – | – | – | – | – | – | – |
| COc1cccc(N2C(=O)c3c(c4[nH]c5ccccc5c4c4ccc(C(C)(C)C)cc34)C2=O)c1 | > 100 µM | > 100 µM | > 100 µM | > 100 | > 100 µM | > 100 µM | > 100 µM | – | – | – | – | – | – | – | – | – | – | – |
| CCCCCCCCCCCCCS(=O)(=O)O | > 100 µM | > 100 µM | > 100 µM | > 100 | > 100 µM | > 100 µM | – | – | – | – | – | – | – | – | – | – | – | – |
| CC1=CC=NN2C(=O)[C@H](C)C2C1 (stereo partly drawn) | > 100 µM | > 100 µM | > 100 µM | > 100 | > 100 µM | > 100 µM | > 100 µM | – | – | – | – | – | – | – | – | – | – | – |
| C/C(=N\NC(=S)N1CCCCCC1)c1nccnc1C | > 100 µM | 9.89 µM | 76.8 µM | > 100 | > 100 µM | > 100 µM | 11.4 µM | – | – | – | – | – | – | – | – | – | – | – |
| Cc1ccc(S(=O)(=O)N/N=C(\CCN2CCCC2)CC(c2ccccc2)c2c(O)c3ccccc3oc2=O)cc1 (stereo not drawn) | – | > 100 µM | > 100 µM | > 100 | > 100 µM | > 100 µM | – | – | – | – | – | – | – | – | – | – | – | – |
| Cn1ncc(=S)[nH]c1=S | > 100 µM | > 100 µM | > 100 µM | > 100 | > 100 µM | > 100 µM | > 100 µM | – | – | – | – | – | – | – | – | – | – | – |
| O=C1NC(=O)C(C(=O)C(=O)Nc2ccc(Br)cc2)C(=O)N1 | > 100 µM | > 100 µM | > 100 µM | > 100 | > 100 µM | > 100 µM | > 100 µM | – | – | – | – | – | – | – | – | – | – | – |
| O=S(=O)([O-])[O-].[OH3+].[OH3+].[OH3+].[Ru+2].c1ccccc1 | > 100 µM | > 100 µM | > 100 µM | > 100 | > 100 µM | – | > 100 µM | > 100 µM | > 100 µM | > 100 µM | > 100 | > 100 µM | > 100 µM | – | – | – | – | – |
| CN(C)CCCCN1CCc2c(n(C)c3ccccc23)C1=O | 39.7 µM and 31.4 µM | 43.6 µM | > 100 µM | 35.1 | > 100 µM | > 72.9 µM | > 100 µM | – | – | – | – | – | – | > 100 | > 59.9 µM and 64.7 µM | > 63.2 µM and 61.9 µM | – | – |
| CC(=O)N(C)OC(=O)CC(=O)c1ccccc1 | > 100 µM | > 100 µM | – | > 100 | > 100 µM | > 100 µM | > 100 µM | – | – | – | – | – | – | – | – | – | – | – |
| CCN(CC)CCCN(c1cc(OC)cc2nccnc12)S(=O)(=O)c1ccc(C)cc1 | > 100 µM | > 100 µM | > 100 µM | > 100 | > 100 µM | > 100 µM | > 100 µM | – | – | – | – | – | – | – | – | – | – | – |
| CCCc1c2c([nH]c(=O)c1C)C(=O)c1[nH]c(=O)c(C)c(CCC)c1C2=O | > 100 µM | – | > 100 µM | > 100 | – | – | – | – | – | – | – | – | – | – | – | – | – | – |
| Cc1[nH]c(=O)[nH]c(=O)c1N(CCF)CCCl | 589 µM and 1140 µM and 711 µM | 679 µM and 554 µM | 927 µM and 2060 µM and 1190 µM | – | 1250 µM and 1290 µM and 830 µM | 455 µM and 1280 µM and 619 µM | 330 µM and 470 µM and 560 µM | 256 µM and 494 µM | 334 µM and 198 µM | 401 µM and 719 µM and 415 µM | – | 303 µM and 472 µM | 113 µM and 122 µM and 189 µM | 1410 | 502 µM and > 250 µM and 851 µM | 888 µM | 140 | 194 µM and 429 µM |
| COc1nc2c(OC)cccc2c(OC)c1C=O | > 100 µM | > 100 µM | > 100 µM | – | – | > 100 µM | > 100 µM | – | – | – | – | – | – | – | – | – | – | – |
| CC(=O)N1CCC2(C=Nc3ccccc32)CC1 | > 100 µM | > 100 µM | > 100 µM | > 100 | > 100 µM | > 100 µM | > 100 µM | – | – | – | – | – | – | – | – | – | – | – |
| O=C(Cc1nc2ccccc2s1)C(=O)Nc1ccc(Cl)cc1 | > 100 µM | – | > 100 µM | > 100 | > 100 µM | > 100 µM | > 100 µM | – | – | – | – | – | – | – | – | – | – | – |
| COc1cc(Nc2cnc3cc(C(F)(F)F)ccc3n2)cc(OC)c1OC | > 100 µM | > 100 µM | > 100 µM | > 100 | > 100 µM | > 100 µM | > 100 µM | – | – | – | – | – | – | – | – | – | – | – |
| O=C(Nc1ccc(Cl)c(C(F)(F)F)c1)C(=O)C(C(=O)/C=C/c1ccccc1)C1OC(=O)c2ccccc21 (stereo not drawn) | – | > 100 µM | > 100 µM | > 100 | > 100 µM | > 100 µM | > 100 µM | – | – | – | – | – | – | – | – | – | – | – |
